Here are results for four molecules from publication PMC4790851, “Iminosugars Inhibit Dengue Virus Production via Inhibition of ER Alpha-Glucosidases—Not Glycolipid Processing Enzymes” (PLoS Neglected Tropical Diseases, 2016).

A value given as a limit tells only on which side of the number the result lay.

What is called IC50 is the concentration at which inhibition is half-maximal. A higher IC50 goes with weaker potency.

The target of the assay is T1, Mouse ER α-glucosidase II (Mus musculus, UniProt Q8BHN3).
T1 sequence (Q8BHN3 33-944): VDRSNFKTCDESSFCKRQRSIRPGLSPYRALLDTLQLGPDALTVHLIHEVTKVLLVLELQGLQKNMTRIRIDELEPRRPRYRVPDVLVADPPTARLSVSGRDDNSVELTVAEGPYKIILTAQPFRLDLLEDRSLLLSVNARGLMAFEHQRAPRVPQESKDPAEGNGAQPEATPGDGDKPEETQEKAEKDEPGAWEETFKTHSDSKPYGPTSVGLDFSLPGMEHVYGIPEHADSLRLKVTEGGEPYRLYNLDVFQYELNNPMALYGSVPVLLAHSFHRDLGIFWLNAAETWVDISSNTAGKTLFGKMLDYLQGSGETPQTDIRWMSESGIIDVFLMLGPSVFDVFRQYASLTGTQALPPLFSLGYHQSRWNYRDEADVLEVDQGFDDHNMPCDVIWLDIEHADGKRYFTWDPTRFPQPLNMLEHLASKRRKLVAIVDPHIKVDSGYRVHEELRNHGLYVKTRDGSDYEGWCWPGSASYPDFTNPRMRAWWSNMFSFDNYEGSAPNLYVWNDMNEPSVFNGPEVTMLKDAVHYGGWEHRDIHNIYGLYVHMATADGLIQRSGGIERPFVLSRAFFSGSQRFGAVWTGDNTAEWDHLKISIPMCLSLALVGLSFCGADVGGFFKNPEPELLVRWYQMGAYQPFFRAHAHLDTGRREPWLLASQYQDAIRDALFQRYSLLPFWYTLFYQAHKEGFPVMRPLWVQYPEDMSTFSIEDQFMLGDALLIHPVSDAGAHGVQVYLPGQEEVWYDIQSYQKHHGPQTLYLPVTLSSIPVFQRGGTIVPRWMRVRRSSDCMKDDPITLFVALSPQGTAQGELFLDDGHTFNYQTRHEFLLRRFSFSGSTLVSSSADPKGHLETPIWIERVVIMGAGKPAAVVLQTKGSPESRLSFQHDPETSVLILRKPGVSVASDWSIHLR
T1 sequence (O08795 15-521 partner): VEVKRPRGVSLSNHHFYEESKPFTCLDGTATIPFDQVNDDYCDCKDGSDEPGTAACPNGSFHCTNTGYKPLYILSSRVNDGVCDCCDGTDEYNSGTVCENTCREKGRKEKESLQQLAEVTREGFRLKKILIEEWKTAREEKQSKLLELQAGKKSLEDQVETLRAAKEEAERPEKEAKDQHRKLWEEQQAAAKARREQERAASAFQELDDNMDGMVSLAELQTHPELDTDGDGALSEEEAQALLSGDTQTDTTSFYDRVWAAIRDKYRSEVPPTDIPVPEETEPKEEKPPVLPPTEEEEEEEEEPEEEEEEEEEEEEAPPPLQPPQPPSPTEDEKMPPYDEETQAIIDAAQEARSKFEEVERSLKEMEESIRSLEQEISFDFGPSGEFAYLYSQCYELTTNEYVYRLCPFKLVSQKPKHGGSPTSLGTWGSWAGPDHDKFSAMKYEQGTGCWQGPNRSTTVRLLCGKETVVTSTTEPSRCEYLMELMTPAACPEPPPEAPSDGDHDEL
Briefly: In vitro enzyme inhibition, 4MUG hydrolysis. Type of assay: biochemical. Particulars: concentration required to inhibit the enzyme to 50% activity. The protocol:
Recombinant Mus musculus ER alpha-glucosidase II inhibition was measured by incubating 20 nM enzyme with various concentrations of inhibitors in 100 mM potassium phosphate pH 7.2 at 37 °C for 5 minutes. Activity was measured by addition of 0.25 mM 4-methylumbelliferyl α-D-glucopyranoside (4MUG) (Sigma Aldrich) in black, non-binding surface-treated microplates (Corning). Fluorescence upon hydrolysis of the 4MUG was measured at λex of 355 nm and λem of 460 nm in a M5 multi-mode plate reader (Molecular Devices) at 37 °C, measuring fluorescence every minute for a total of 30 minutes. The initial velocity was fit in the linear range of measurements, and activity was normalized to the uninhibited control in order to plot activity against the inhibitor concentration. A sigmoidal, four-parameter function with a variable slope was used to determine the EC50 values in Prism (GraphPad).
With `CCCC(=O)O[C@H]1CN2CC[C@H](O)[C@@H]2[C@@H](O)[C@@H]1O` [Celgosivir, 6-O-butanoyl-castanospermine], half-maximal inhibition (IC50) required 158 µM.

As for `CCCCN1C[C@H](O)[C@@H](O)[C@@H](O)[C@H]1CO` [NB-DGJ], the IC50 was over 1000 µM. The result for `CCCCN1C[C@H](O)[C@@H](O)[C@H](O)[C@H]1CO` [NB-DNJ, N-butyl-DNJ] reads 5.2 µM. In turn, `CCCCCCCCCN1C[C@H](O)[C@@H](O)[C@@H](O)[C@H]1CO` [NN-DGJ] returned an IC50 of over 1000 µM.
